According to patent US12035716B2, “Treatment for seeds disinfection” (VILMORIN & CIE, priority 2013, dated 2024):
Read-outs that look alike come from different tables or passages of the source.

Experiments:
[1] = tested on: Clavibacter michiganensis subsp. michiganensis; assay: Disinfection of tomato seeds naturally infected by CMM; ISF detection method; type: in vivo; conditions: 1% Ca(ClO)2
Excerpt: (§1) Tomato seeds have been obtained from commercial seed lot naturally infected by CMM in the production field. Vacuum treatment was done by vacuum infiltration (VI) method using 4 liters of 1% calcium hypochlorite, as described hereafter. The vacuum was applied while seeds were located in a perforated basket above the disinfectant solution in a closed chamber. A vacuum pressure was applied at maximal reachable vacuum pressure of about 975-985 mbar, followed by submerging the seeds into the solution and releasing the vacuum. Vacuum/de-vacuum cycles were repeated 4 times and at the end, all the seeds sunk. The seeds were collected, rinsed for 5 minutes and dried. Soaking treatment was done in the same solution for one hour after VI treatment or without VI treatment.
Clavibacter michiganensis subsp. michiganensis infection results were obtained by using the “method for the detection of Clavibacter michiganensis subsp. michiganensis on tomato seed” according to the International Seed Federation (ISF) Manual of Seed Health Methods, as can be found in the internet site: http://www.worldseed.org/isf/ishi_vegetable.html.

tomato seeds = assay: Germination and transplant tests of treated tomato seeds (AOSA, Example 8); type: in vivo; conditions: 1% Ca(ClO)2; for UNIF (Uniform Transplants) / UT (Useable Transplants): trays in a greenhouse
Excerpt: as §1
The germination tests have been done according to the Association of Official Seed Analysts (AOSA) (http://www.aosaseed.com/).

CGMMV = conditions: Tri Sodium Phosphate 10%, negative control 0.13
Method: In this case, cucumber seeds have been obtained from a commercial seed lot, naturally infected by CGMMV in the production field.
The seeds were disinfected by standard method and by vacuum infiltration method. In this case, vacuum is applied at maximal pressure of 975-985 mbar from the beginning. […] The vacuum cycles continue until floating seeds are no longer sinking. The floating seeds are then removed and discarded. This process takes 15-20 minutes.
In this case two chemicals were used.
We also tested the effect of different concentration of Na-Dichloroisocyanurate applied by vacuum infiltration on CGMMV and germination (table II) treatment E is untreated control; treatment F is vacuum infiltration of Na-Dichloroisocyanurate 0.75%; treatment G is vacuum infiltration of Na-Dichloroisocyanurate 1.5% and treatment H is vacuum infiltration of Na-Dich loroisocyanurate 2.0%.
CGMMV was tested by ELISA assay according to method 7-026 of the international rules for seed testing annex to chapter 7: seed health testing methods; International Seed Testing Association, Zurich, Switzerland, 2010.

cucumber seeds = conditions: Tri Sodium Phosphate 10%
Method: The germination test was performed according to Annex to chapter 5, International Rules for Seed Testing, International Seed Testing Association, Zurich, Switzerland, 1996.

Acidovorax citrulli = conditions: cited from earlier work; for Eradication of seed borne Acidovorax citrulli inoculum: chemical seed treatment of infected seeds (Dutta et al. 2012)

## [Ca+2].[O-]Cl.[O-]Cl [Ca(ClO)2, calcium hypochlorite]
[1]; 1 hr soak alone
  CMM infection results: Positive
[1]; VI alone
  CMM infection results: Negative
[1]; VI then 1 hr soak
  CMM infection results: Negative
Tomato seeds; 1 hr soak alone
  EN (Energy, early germination counts on Day 5): 98
  OG (Optimum Germination, counted on Day 14): 98
  UNIF (Uniform Transplants): 92
  UT (Useable Transplants): 95
Tomato seeds; VI alone
  EN (Energy, early germination counts on Day 5): 96
  OG (Optimum Germination, counted on Day 14): 96
  UNIF (Uniform Transplants): 91
  UT (Useable Transplants): 94
Tomato seeds; VI then 1 hr soak
  EN (Energy, early germination counts on Day 5): 99
  OG (Optimum Germination, counted on Day 14): 99
  UNIF (Uniform Transplants): 89
  UT (Useable Transplants): 92

## O=P([O-])([O-])[O-].[Na+].[Na+].[Na+] [Tri Sodium Phosphate]
CGMMV; standard disinfection
  ELISA assay result (rate of extinction at A405): 0.34
CGMMV; vacuum infiltration
  ELISA assay result (rate of extinction at A405): 0.19
Cucumber seeds; standard disinfection
  Germination %: 100%
Cucumber seeds; vacuum infiltration
  Germination %: 100%

## Cl [hydrochloric acid]
Acidovorax citrulli
  Eradication of seed borne Acidovorax citrulli inoculum: generally fail to eradicate the bacterium from the infected seeds
Acidovorax citrulli; in vivo
  BFB seedling transmission: significantly reduce BFB seedling transmission

## CC(=O)OO [peroxyacetic acid]
Acidovorax citrulli
  Eradication of seed borne Acidovorax citrulli inoculum: generally fail to eradicate the bacterium from the infected seeds
Acidovorax citrulli; seed treatment (Walcott 2005)
  BFB seedling transmission: significantly reduce BFB seedling transmission

## OCl [sodium hypochlorite]
Acidovorax citrulli
  Eradication of seed borne Acidovorax citrulli inoculum: generally fail to eradicate the bacterium from the infected seeds
Acidovorax citrulli; seed treatment (Walcott 2005)
  BFB seedling transmission: significantly reduce BFB seedling transmission
